According to patent US20020169205A1, “Implantation rates after in vitro fertilization, and treatment of infertility and early pregnancy loss with a nitric oxide donor or substrate alone or in combination with progesterone, and a method for contraception with nitric oxide inhibitors in combination with antiprogestins or other agents” (priority 1998, published 2002):

Assays:
implantation in rats = assay: Effects of L-NAME on implantation in pregnant rats (FIG. 1 and FIG. 2); assay type: in vivo
Description: The animals were treated with 25 and 50 mg/animal/day L-NAME administered via continuous s.c. infusion from day 1 post coitum (p.c.) until day 7 p.c The autopsy was performed on day 12 p.c.
The animals were treated with 25 and 50 mg/animal/day L-NAME administered via continuous s.c. infusion on day 5-7 (p.c.). The autopsy was performed on either day 9 p.c. or day 12 p.c.
In the experiments whose results are shown in FIG. 1, pregnant rats (n=6/group) were treated with 25 and 50 mg/animal/day L-NAME from day 1 p.c. until day 7 p.c., i.e. during the period of pre-implantation and early implantation (in rats implantation takes place on day 5 p.c. ). The control animals were treated with the vehicle. During autopsy (days 9 and 12 p.c.) the implantation sites were assessed macroscopically, their diameter was measured, and the weights of isolated implantation sites (embryonic and placental tissues) were recorded. FIG. 2 presents results from a second study In pregnant rats in which L-NAME (25 and 50 mg/anilal/day) treatment was performed on days 5-7 p.c., i.e. shortly after nidation had taken place. The autopsy was performed on day 12 p.c. Implantation showing haemorrhagic changes were defined as pathological implantation sites.

[1] = test system: uterine strips from rats at mid to near term gestation; conditions: cited from earlier work
uterine blood flow = conditions: low dose aspirin, patients with impeded blood flow; cited from earlier work
implantation = assay: Other studies: L-NAME effects on implantation combined with low-dose onapristone; assay type: in vivo; conditions: onapristone low-dose 0.1-0.3 mg/animal/day together with L-NAME
[2] = 25 and 50 mg/animal/day s.c. infusion, autopsy day 9 or 12 p.c.

With `COC(=O)[C@@H](N)CCCNC(=N)N[N+](=O)[O-]` [L-NAME, NG-nitro-L-arginine methyl ester] as the molecule, how does the effect on implantation (implantation in rats; 25 and 50 mg/animal/day continuous s.c. infusion, day 1-7 p.c. or days 5-7 p.c.) read?
The effect on implantation was “profound effect on implantation”.

And the “size of the implantation sites” value (implantation in rats; [2])?
The value was “dose-dependent inhibition”.

What about the “weight of the implantation sites” value (implantation in rats; [2]) of the same molecule?
The value was “dose-dependent inhibition”.

What about the “pathological changes in the implantation sites” value (implantation in rats; 25 and 50 mg/animal/day s.c. infusion, haemorrhagic changes defined as pathological) of the same molecule?
The value was “induced pathological changes in the implantation sites (mainly haemorrhages)”.

Which “relaxation of spontaneous activity of uterine strips” value [1] does the source give for `N=C(N)NCCC[C@H](N)C(=O)O` [L-arginine] here?
Its value is “rapid and substantial relaxation”.

For `CC(=O)Oc1ccccc1C(=O)O` [aspirin], which “effect on uterine blood flow” value (uterine blood flow) is on record?
Its value is “only marginal”.

For `CN(C)c1ccc([C@H]2C[C@]3(C)[C@@H](CC[C@]3(O)CCCO)[C@@H]3CCC4=CC(=O)CCC4=C32)cc1` [onapristone], which “L-NAME-induced effects on implantation with added antiprogestin” value (implantation) is on record?
Its value is “enhanced”.
